Source: paper PMC7554340, “A Novel Dual-Targeted α-Helical Peptide With Potent Antifungal Activity Against Fluconazole-Resistant Candida albicans Clinical Isolates” (Frontiers in Microbiology, 2020)
pIC50: −log10 of the molar value. No end group written: not given here.

Tests used:
C. albicans cgmcc 2.2086 = experiment: Antifungal activity assay (broth microdilution, MIC/MFC); type: cell-based, Candida albicans; details: for MFC: 50 μl of MIC wells plated on YPD agar, 28°C, 48 h, lowest concentration that completely killed fungal cells, consensus of at least three independent experiments; for MIC: cgmcc 2.2086, 48 h, pH 7
C. albicans 14936 = details: 14936, 48 h; for MIC: pH 7
C. albicans 17546 = details: 17546, 48 h; for MIC: pH 7
C. albicans 56452 = details: 56452, 48 h; for MIC: pH 7
C. albicans sp3876 = details: sp3876, 48 h; for MIC: pH 7
[1] = tested on: C. parapsilosis cgmcc 2.3989; experiment: Antifungal activity assay (broth microdilution, MIC/MFC); type: cell-based, Candida parapsilosis; details: for MFC: 50 μl of MIC wells plated on YPD agar, 28°C, 48 h, lowest concentration that completely killed fungal cells, consensus of at least three independent experiments; for MIC: cgmcc 2.3989, 48 h, pH 7
C. albicans sp3902 = details: sp3902, 48 h; for MIC: pH 7
C. albicans 56214 = details: 56214, 48 h; for MIC: pH 7
C. albicans sp3903 = details: sp3903, 48 h; for MIC: pH 7
C. albicans sp3931 = details: sp3931, 48 h; for MIC: pH 7
C. albicans 58288 = details: 58288, 48 h; for MIC: pH 7
[2] = tested on: C. tropicalis cgmcc 2.1975; experiment: Antifungal activity assay (broth microdilution, MIC/MFC); type: cell-based, Candida tropicalis; details: for MFC: 50 μl of MIC wells plated on YPD agar, 28°C, 48 h, lowest concentration that completely killed fungal cells, consensus of at least three independent experiments; for MIC: cgmcc 2.1975, 48 h, pH 7
PMEC cells = details: PMEC cells, MTT, 24 h treatment, 1-64 μM; probit regression
IPEC-J2 cells = details: IPEC-J2 cells, MTT, 24 h treatment, 1-64 μM; probit regression
IPEC-J2 and PMEC cells = experiment: Cytotoxicity MTT assay, statements for both cell lines; details: 24 h
human erythrocytes = details: for HC10: red cells of human, 1 h

Row | Substance | MFC (C. albicans cgmcc 2.2086) [µM] | MIC (C. albicans cgmcc 2.2086) [µM] | MFC (C. albicans 14936) [µM] | MIC (C. albicans 14936) [µM] | MFC (C. albicans 17546) [µM] | MIC (C. albicans 17546) [µM] | MFC (C. albicans 56452) [µM] | MIC (C. albicans 56452) [µM] | MFC (C. albicans sp3876) [µM] | MIC (C. albicans sp3876) [µM] | MFC [1] [µM] | MIC [1] [µM] | MFC (C. albicans sp3902) [µM] | MIC (C. albicans sp3902) [µM] | MFC (C. albicans 56214) [µM] | MIC (C. albicans 56214) [µM] | MFC (C. albicans sp3903) [µM] | MIC (C. albicans sp3903) [µM] | MFC (C. albicans sp3931) [µM] | MIC (C. albicans sp3931) [µM] | further results
1 | KIGKVL-NH2 [KV] | >64 | >64 | >64 | >64 | >64 | >64 | >64 | >64 | >64 | >64 | >64 | >64 | >64 | >64 | >64 | >64 | >64 | >64 | >64 | >64 | MFC (C. albicans 58288): >64 µM; MIC (C. albicans 58288): >64 µM; MFC [2]: >64 µM; MIC [2]: >64 µM
2 | KIGKVLLVKGIK-NH2 [KV2] | >64 | >64 | >64 | >64 | >64 | >64 | >64 | >64 | >64 | >64 | >64 | >64 | >64 | >64 | >64 | >64 | >64 | >64 | >64 | >64 | MFC (C. albicans 58288): >64 µM; MIC (C. albicans 58288): >64 µM; MFC [2]: >64 µM; MIC [2]: >64 µM
3 | KIGKWLLWKGIKKIGKWL-NH2 [KW3] | 8 | 4 | 8 | 8 | 8 | 8 | 4 | 4 | 8 | 8 | 8 | 8 | 2 | 2 | 8 | 4 | 8 | 4 | 8 | 8 | pIC50 (PMEC cells): 4.99; pIC50 (IPEC-J2 cells): 5.16; concentration at which statistically significant cytotoxic effects started (IPEC-J2 and PMEC cells): 4 µM; MFC (C. albicans 58288): 8 µM; MIC (C. albicans 58288): 8 µM; MFC [2]: 2 µM; MIC [2]: 2 µM; hemolytic activity (in words) (human erythrocytes): strong hemolytic activities; HC10 (human erythrocytes): 2.69 µM
4 | RIGRVLLVRGIRRIGRVL-NH2 [RV3] | 32 | 32 | 32 | 32 | 64 | 64 | 16 | 16 | 32 | 32 | 32 | 16 | 32 | 32 | 32 | 16 | 32 | 32 | 32 | 32 | pIC50 (PMEC cells): < 4.19; pIC50 (IPEC-J2 cells): < 4.19; cytotoxic effects (in words) (IPEC-J2 and PMEC cells; 1-64 μM): negligible cytotoxic effects; MFC (C. albicans 58288): 32 µM; MIC (C. albicans 58288): 32 µM; MFC [2]: 16 µM; MIC [2]: 8 µM; HC10 (human erythrocytes): >64 µM
5 | RIGRWLLWRGIRRIGRWL-NH2 [RW3] | 4 | 4 | 4 | 4 | 8 | 8 | 4 | 4 | 4 | 4 | 4 | 4 | 2 | 2 | 2 | 2 | 8 | 2 | 4 | 4 | pIC50 (PMEC cells): 4.65; pIC50 (IPEC-J2 cells): 4.83; concentration at which statistically significant cytotoxic effects started (IPEC-J2 and PMEC cells): 8 µM; MFC (C. albicans 58288): 8 µM; MIC (C. albicans 58288): 4 µM; MFC [2]: 2 µM; MIC [2]: 2 µM; hemolytic activity (in words) (human erythrocytes): strong hemolytic activities; HC10 (human erythrocytes): 3.81 µM
